In patent publication US10675267B2, “Methods for detection and eradication of myeloid leukemia stem cells” (priority 2015, dated 2020):

Assays:
[1] = test system: KG1a cells; test: In vitro splicing of endogenous transcripts (qRT-PCR) in KG1a; format: cell-based; conditions: KG1a AML cells, compared with MOLM-13
Description: For qRT-PCR analysis of relative total mRNA expression levels or splice isoform-specific expression analyses, cDNA was synthesized using 50 ng-1 […] reaction volumes using the First-Strand SUPERSCRIPT™ III Reverse Transcriptase Supermix (Life Technologies) followed by incubation with RNase H according to the manufacturer's protocol and as described previously (Abrahamsson et al., 2009; Crews et al., 2015). All cDNA products were stored at −20° C. Splice isoform-specific primers for PTK2B-202 were designed to bind to unique exon junctions for this transcript, which lacks exon 24. All primers (Supplemental Experimental Procedures Table) were diluted to 10 ∝M working dilutions in DNase/RNase-free water. qRT-PCR was performed in duplicate using cDNA (1 ∝Λ reverse transcription product per reaction) on an iCycler (Bio-Rad, Hercules, Calif.) using SYBR® GREENER™ Super Mix (Life Technologies) in 25-∝A volume reactions containing 0.2 ∝M of each forward and reverse primer. Cycling conditions were as follows: 50° C. for 2 minutes, then 95° C. for 8 minutes and 30 seconds, followed by 40 cycles of 95° C. for 15 seconds and 60° C. for 60 seconds. […] For standard qRT-PCR, human HPRT mRNA transcript levels were used to normalize Ct values obtained for each gene, and relative expression levels were calculated using the 2-ddCt method. […]

[2] = Villa et al., Org Lett 2012; cited from earlier work
[3] = test system: HEK293 cells; test: In vitro splicing of endogenous transcripts (qRT-PCR, RT-PCR) in HEK293; format: cell-based
Description: (§1) For qRT-PCR analysis of relative total mRNA expression levels or splice isoform-specific expression analyses, cDNA was synthesized using 50 ng-1 pg of template RNA in 20 μL reaction volumes using the First-Strand SUPERSCRIPT™ III Reverse Transcriptase Supermix (Life Technologies) followed by incubation with RNase H according to the manufacturer's protocol and as described previously. All cDNA products were stored at −20° C. Splice isoform-specific primers for PTK2B-202 were designed to bind to unique exon junctions for this transcript, which lacks exon 24. […] For standard qRT-PCR, human HPRT mRNA transcript levels were used to normalize Ct values obtained for each gene, and relative expression levels were calculated using the 2^−ddCt method. […]
as §1, with “[…]” for “pg”, “[…]” for “μL”, “previously (Abrahamsson et al., 2009; Crews et al., 2015).” for “previously. All cDNA products were stored at −20° C. Splice isoform-specific primers for PTK2B-202 were designed to bind to unique exon junctions for this transcript, which lacks exon 24.”, “2-ddCt” for “2^−ddCt”

## CC[C@H](OC)[C@@H](C)[C@H]1O[C@@H]1[C@@H](O)[C@H](C)/C=C/C=C(\C)[C@H]1OC(=O)C[C@H](O)CC[C@@](C)(O)[C@@H](OC(C)=O)/C=C/[C@@H]1C (stereo in doubt) [Formula 17S-FD-895, 17S-FD-895]
[1]
  DNAJB1 intron 2 levels: to a lesser extent
[2]
  activity over FD-895: 25 fold
[3]; HEK293, 0.01-10 μM, 4 hrs
  MCL1-S expression (qRT-PCR): low doses of 17S-FD-895 increased MCL1-S expression, this effect was reversed at high doses
[3]; HEK293 cells, compared with MOLM-13
  DNAJB1 intron 2 levels: to a lesser extent
